According to US6130058A, “Human NMDA R2A receptor subunit and isoforms of the human NMDA-R1 receptor subunit and encoding cDNAs” (Merck Sharpe & Dohme Ltd., priority 1992, dated 2000):

Key:
[1] = target: recombinant R1a+R2A NMDA receptor expressed by population B cells (Homo sapiens, UniProt Q05586+Q12879); assay: Whole cell patch clamp electrophysiology on population B cells; type: cell-based
Source text: The nature of the NMDA receptor expressed by population B cells has been extensively characterised by electrophysiological techniques, using whole cell patch clamp.

[2] = target: T1, recombinant R1a NMDA receptors (Homo sapiens, UniProt Q05586); assay: [3H]-L-689,560 radioligand binding to membranes of R1a transfected Ltk- cells (population A); conditions: 1 nM radioligand, 100 μg protein, 2 hours on ice, dexamethasone-induced cells
T1 construct: expressed in transfected cells
Method: Ltk^- cells were obtained from the Salk Institute for Biological Studies, San Diego, Calif. Cells were grown at 37° C., 5-8% CO2, in Modified Eagles Medium containing penicillin, streptomycin and 10% fetal calf serum. […] For co-transfection, Ltk^- cells were plated in dishes (approx. 2×10^5 cells/dish) and grown overnight. The transfection was performed by calcium phosphate precipitation using a kit (purchased from 5 Prime→3 Prime Products, Westchester, Pa.). Co-transfection was performed according to manufacturers' instructions, using 5 μg of each subunit DNA construct per 10 cm dish of cells. After 2 days in culture the cells were divided 1:8 into culture medium containing 1 mg/ml neomycin [Geneticin (obtainable from Gibco BRL, Paisley, Scotland, United Kingdom)]. After a further week the concentration was increased to 1.5 mg/ml, and then 2 mg/ml 1 week after that. Resistant clones of cells were isolated and subcloned using cloning cylinders. Subclones were analysed using radioligand binding: subclones were grown in 10 cm culture dishes, and when confluent changed into culture medium containing 1 μM dexamethasone (obtainable from Sigma Chemical Company, Poole, Dorset, United Kingdom). […] Rev. Pharmacol. […] Non-specific binding was determined in a parallel incubation containing 10 mM glycine. […]

[3] = target: T2, recombinant R1a+R2A receptors (Homo sapiens, UniProt Q05586); assay: [3H]-L-689,560 radioligand binding to membranes of R1a+R2A transfected Ltk- cells (population B)
T2 construct: expressed in transfected cells
Method: (§1) The nature of the recombinant R1a NMDA receptors prepared as described in Example 3 was addressed by characterization of the glycine site binding pharmacology, using the glycine site antagonist [^3 H]-L-689,560. For radioligand binding assays, cells which had been induced by culture in dexamethasone containing medium for 3-5 days were scraped off into 5 mM Tris-Acetate, pH 7.0 at 4° C. (buffer 1) and pelleted (20,000 rpm, Sorvall RC5C centrifuge). The cell pellet was resuspended in buffer 1, homogenised using an Ultra-Turrax homogeniser and then pelleted as above. This was repeated once more, and the cells then resuspended in 50 mM Tris-Acetate, pH 7.0 at 4° C. (buffer 2) at a protein concentration of 1 mg/ml. […] After 2 hours incubation on ice the membranes were harvested onto filters using a Brandel cell harvester, washed with cold buffer 2, and bound radioactivity determined by scintillation counting. Non-specific binding was determined in a parallel incubation containing 10 mM glycine. […]
(§2) For radioligand binding assays, cells which had been induced by culture in dexamethasone, MgCl2 and D-AP5 containing medium for 3-5 days were scraped off into 5 mM Tris-Acetate, pH 7.0 at 4° C. […] After 2 hours at 25° C. in the presence of 30 μM glycine and 30 μM L-glutamate the membranes were washed with buffer 1 and bound radioactivity determined by scintillation counting. […]

[4] = system: untransfected Ltk- cells; assay: Radioligand binding to untransfected Ltk- cells (control); design: species or system mouse
Method: as §1, §2

[5] = target: recombinant R1a+R2A NMDA receptors (Homo sapiens, UniProt Q05586+Q12879); assay: [3H]-dizocilpine radioligand binding to membranes of R1a+R2A transfected Ltk- cells (population B); conditions: 2 nM radioligand, 100 μg protein, 2 hours at 25° C., 30 μM glycine and 30 μM L-glutamate
Method: Ltk^- cells were obtained from the Salk Institute for Biological Studies, San Diego, Calif. Cells were grown at 37° C., 5-8% CO2, in Modified Eagles Medium containing penicillin, streptomycin and 10% fetal calf serum. […] For co-transfection, Ltk^- cells were plated in dishes (approx. 2×10^5 cells/dish) and grown overnight. The transfection was performed by calcium phosphate precipitation using a kit (purchased from 5 Prime→3 Prime Products, Westchester, Pa.). Co-transfection was performed according to manufacturers' instructions, using 5 μg of each subunit DNA construct per 10 cm dish of cells. After 2 days in culture the cells were divided 1:8 into culture medium containing 1 mg/ml neomycin [Geneticin (obtainable from Gibco BRL, Paisley, Scotland, United Kingdom)]. […] Subclones were analysed using radioligand binding: subclones were grown in 10 cm culture dishes, and when confluent changed into culture medium containing 1 μM dexamethasone (obtainable from Sigma Chemical Company, Poole, Dorset, United Kingdom). […]
For radioligand binding assays, cells which had been induced by culture in dexamethasone, MgCl2 and D-AP5 containing medium for 3-5 days were scraped off into 5 mM Tris-Acetate, pH 7.0 at 4° C. […] Non-specific binding was determined in a parallel incubation containing 100 μM dizocilpine.

For `O=C(O)[C@H]1C[C@@H](CP(=O)(O)O)CCN1` (relative stereo) [CGS 19,755], the “antagonism of the response to glutamate and glycine” value [1] was “antagonised”.
In the case of `O=C(Nc1ccccc1)N[C@@H]1C[C@@H](C(=O)O)Nc2cc(Cl)cc(Cl)c21` (relative stereo) [[^3 H]-L-689,560], the “level of [3H]-L-689,560 bound” value [2] is reported as “up to 3700 fmols/mg protein”, the “level of [3H]-L-689,560 bound” value [3] is reported as “up to 500 fmols/mg protein” and the “binding to untransfected Ltk- cells” value ([4]; [3H]-L-689,560 binding conditions, 1 nM) is reported as “No binding”.
With `C[C@]12N[C@H](Cc3ccccc31)c1ccccc12` [[^3 H]-dizocilpine, dizocilpine] the “level of [3H]-dizocilpine bound” value [5] was “up to 200 fmols/mg protein” and the “binding to untransfected Ltk- cells” value ([4]; [3H]-dizocilpine binding conditions, 2 nM) was “No binding”.
